Consider one compound from patent publication US20250000856A1, “CRYSTALLINE FORMS OF N-((1R,3S)-3-(4-ACETYLPIPERAZIN-1-YL)CYCLOHEXYL)-4-FLUORO-7-METHYL-1H-INDOLE-2-CARBOXAMIDE” (Epizyme, Inc., priority 2021, published 2025).

This data set can be described thus: Pharmacokinetics of Free Base Forms I and II in male Beagle dogs after a single oral dose; Compound 1 plasma concentrations by LC-MS/MS. The data set is classed as in vivo. Here is the method:
In this study, male Beagle dogs were administered Free Base Form I and Free Base Form II at 25 mg/kg and 100 mg/kg (0.5% carboxymethylcellulose (CMC) and 0.1% Tween in water at pH 7). The dogs were fasted overnight and then offered food one hour prior to oral administration of the form. Blood samples were collected at predetermined timepoints up to 48 hours. Compound 1 plasma concentrations were determined by liquid chromatography with tandem mass spectrometry (LC-MS/MS) methods.

Setting [1] is: 25 mg/kg dose, versus Free Base Form I.
[2] abbreviates: 100 mg/kg dose, versus Free Base Form I.

`CC(=O)N1CCN([C@H]2CCC[C@@H](NC(=O)c3cc4c(F)ccc(C)c4[nH]3)C2)CC1` [Free Base Form II, N-((1R,3S)-3-(4-acetylpiperazin-1-yl)cyclohexyl)-4-fluoro-7-methyl-1H-indole-2-carboxamide]: under setting [1], the “Compound 1 AUC0-inf greater than that of Free Base Form I” value is about 20% and the “Compound 1 Cmax greater than that of Free Base Form I” value is recorded as about 40%. Also, under setting [2], the “AUC0-inf greater than that of Free Base Form I” value is recorded as 3.1 fold and the “Cmax greater than that of Free Base Form I” value is 1.8 fold. In addition, under “oral 25 and 100 mg/kg, difference dose-dependent”, the “exposure in dogs compared with Free Base Form I” value is “unexpectedly greater exposure”.
